For assay [1], the target named is T1, hEP1 (Homo sapiens, UniProt P34995).
T1 construct: expressed in transfected cells
T1 sequence (P34995 1-402): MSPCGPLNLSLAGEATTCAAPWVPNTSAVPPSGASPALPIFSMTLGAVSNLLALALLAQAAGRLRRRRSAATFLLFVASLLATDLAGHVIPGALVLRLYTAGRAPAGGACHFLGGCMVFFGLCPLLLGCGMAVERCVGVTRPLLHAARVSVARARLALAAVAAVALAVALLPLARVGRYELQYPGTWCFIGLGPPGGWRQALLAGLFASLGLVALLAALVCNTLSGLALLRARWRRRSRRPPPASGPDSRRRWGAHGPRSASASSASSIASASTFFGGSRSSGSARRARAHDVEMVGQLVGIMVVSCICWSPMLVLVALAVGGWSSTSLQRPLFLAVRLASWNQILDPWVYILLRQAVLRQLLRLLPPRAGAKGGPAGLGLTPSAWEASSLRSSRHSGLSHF
Put plainly: Functional data, human recombinant EP1 receptor stable transfectants. The format is cell-based. The protocol: (§1) Human Recombinant EP1, EP2, EP3, EP4, FP, TP, IP and DP Receptors: Stable Transfectants
(§2) Plasmids encoding the human EP1, EP2, EP3, EP4, FP, TP, IP and DP receptors were prepared by cloning the respective coding sequences into the eukaryotic expression vector pCEP4 (Invitrogen). The pCEP4 vector contains an Epstein Barr virus (EBV) origin of replication, which permits episomal replication in primate cell lines expressing EBV nuclear antigen (EBNA-1). It also contains a hygromycin resistance gene that is used for eukaryotic selection. The cells employed for stable transfection were human embryonic kidney cells (HEK-293) that were transfected with and express the EBNA-1 protein. These HEK-293-EBNA cells (Invitrogen) were grown in medium containing Geneticin (G418) to maintain expression of the EBNA-1 protein. HEK-293 cells were grown in DMEM with 10% fetal bovine serum (FBS), 250 μg ml^−1 G418 (Life Technologies) and 200 μg ml^−1 gentamicin or penicillin/streptomycin.
For transfection, the cells were grown to 50-60% confluency on 10 cm plates. The plasmid pCEP4 incorporating cDNA inserts for the respective human prostanoid receptor (20 μg) was added to 500 μl of 250 mM CaCl2. HEPES buffered saline×2 (2×HBS, 280 mM NaCl, 20 mM HEPES acid, 1.5 mM Na2 HPO4, pH 7.05-7.12) was then added dropwise to a total of 500 μl, with continuous vortexing at room temperature. After 30 min, 9 ml DMEM were added to the mixture. The DNA/DMEM/calcium phosphate mixture was then added to the cells, which had been previously rinsed with 10 ml PBS. The cells were then incubated for 5 hr at 37° C. in humidified 95% air/5% CO2. The calcium phosphate solution was then removed and the cells were treated with 10% glycerol in DMEM for 2 min. The glycerol solution was then replaced by DMEM with 10% FBS. The cells were incubated overnight and the medium was replaced by DMEM/10% FBS containing 250 μg ml^−1 G418 and penicillin/streptomycin. The following day hygromycin B was added to a final concentration of 200 μg ml^−1.
Ten days after transfection, hygromycin B resistant clones were individually selected and transferred to a separate well on a 24 well plate. At confluence each clone was transferred to one well of a 6 well plate, and then expanded in a 10 cm dish. Cells were maintained under continuous hygromycin selection until use.

For assay [2], the target named is T1, hEP1. Put plainly: Radioligand binding, hEP1. The following applies: [3H]PGE2 competition. The protocol: as §1
as §2, with “HEK-293 cells were grown in DMEM with 10% fetal bovine serum (FBS), 250 μg ml^−1 G418 (Life Technologies) and 200 μg ml^−1 gentamicin or penicillin/streptomycin.” left out
Radioligand binding studies on plasma membrane fractions prepared for cells stably transfected with the cat or human receptor were performed as follows. […] The pellet was then resuspended in TME buffer to provide a final protein concentration of 1 mg/ml, as determined by Bio-Rad assay. […]
The binding of [^3H](N) PGE2 (specific activity 165 Ci/mmol) was determined in duplicate and in at least 3 separate experiments. […] Competition studies were performed using a final concentration of 2.5 or 5 nM [^3H](N) PGE2 and non-specific binding was determined with 10^−5 M unlabelled PGE2.

As to `O=C(O)CCCCCCN1C(=O)CC[C@@H]1CCC(O)Cc1cccc(Cl)c1` (stereo partly drawn) [Example 1, 7-[2S-[3R-Hydroxy-4-(chloro-phenyl)-butyl]-5-oxo-pyrrolidin-1-yl]-heptanoic acid], the EC50 (in general, the concentration that produces a half-maximal response) at hEP1 [1] was more than 10 µM. Further, the IC50 (usually the point on the concentration scale where inhibition reaches its midpoint) at hEP1 [2] stood at 5.8 µM.

The values above are taken from patent publication US6906097B2, “8-azaprostaglandin analogs as agents for lowering intraocular pressure” (Allergan, Inc., priority 2002, dated 2005).
